According to patent US6159983A, “Method and composition for treatment of inflammatory bowel disease” (University of Florida, priority 1998, dated 2000):

How the values were obtained:
[1] = test system: acetic acid-induced colitis; assay: Acetic acid-induced colitis in the rat (pre-treatment, intrarectal); format: in vivo, rat (Sprague-Dawley); settings: for effectiveness against acetic acid-induced colitis: i.r., 650 μmol/kg, before acetic acid, rat
Source text: A typical model of IBD in acetic acid-induced colitis in the rat has been described by Krawisz et al in Amer. J. Proc. Gastro. Col. Rec. Surg., Vol. 31, pages 11-18 (1980); and by Sharon et al in Gastroenterology, Vol. 88, pages 55-63 (1985) and Vol. 86, pages 453-460 (1984). Acetic acid-induced colitis is characterized by the movement of inflammatory cells into the colon, with the number of such cells in the mucosa being measured by the activity of myeloperoxidase, a marker enzyme for these cells. Positive desirable activity is indicated by a reduction in the high levels of myeloperoxidase caused by acetic acid.
Typically, Sprague-Dawley rats from Charles River Laboratories, Portage, Michigan (either sex, weight approximately 250 g) are dosed with test compounds and controls. Thereafter, the rats are given an intracolonic enema of acetic acid which produces a severe inflammatory response in the colon of a healthy rat characterized by rectal bleeding, diarrhea, epithelial erosions and destructions of crypts and gland cells. Twenty-four hours later, the test and control animals are sacrificed and the distal ten centimeters of the colons are removed and opened longitudinally. The tissue lesions contained within the removed, opened section of the colons are scored.
After the systematic evaluation of the impact of various fasting times, use of vehicles, the time interval between pre-treatment and administration of the acetic acid and altering the concentration of acetic acid, the final protocol for the experiments is to fast the rats for 30 hours in hanging wire cages, anesthetize the animals with sodium pentobarbital, administer the test drug 1 cc intrarectally (i.r.) either as a suspension or a solution in water, and to give the acetic acid (7.5% in water) 1 cc i.r. 30 minutes later. The rats are sacrificed 24 hours later and the colons are removed and assessed for damage.

[2] = test system: acetic acid-induced colitis; assay: Reversal studies: compound given 30 minutes after acetic acid; format: in vivo; settings: given 30 minutes after 2.5% acetic acid; rat
[3] = Preliminary acute toxicity studies in mice; format: in vivo
[4] = Iron binding in a test tube
[5] = Iron chelation when given to rats orally or subcutaneously; format: in vivo; settings: orally or subcutaneously (s.c.)
[6] = test system: Crohn's disease; settings: multiple controlled trials and a recent meta-analysis; cited from earlier work
[7] = patients treated long-term with 6MP or AZA for IBD; cited from earlier work
[8] = test system: ulcerative colitis; settings: cited from earlier work

Cc1ccc(O)c(C2=NC(C(=O)O)CC2)c1 (centres unmarked) [2H-pyrrolecarboxylic acid, 3,4-dihydro-5-(2-hydroxy-5-methylphenyl)-2H-pyrrole-2-carboxylic acid]
dose response: prevention of severe lesions ([1]; 162.5 μmol/kg (41.5 mg/kg) at 1 cc i.r., rats): severe lesions being prevented in a majority of rats | head-to-head comparison with 5-ASA or its commercially available formulation (Rowasa) ([1]; 650 μmol/kg vs. 1742 mmol/kg (so in the source), FIGS. 7 and 8): far superior even at a much lower dose | damage to the colons compared with control rats ([1]; FIGS. 2-8): considerably less damage | damage in the colons of the rats, expanded experiments ([1]; expanded experiments): very little damage | damage in the colons of the test animals ([1]; i.r. at 650 μmol/kg (165 mg/kg N-methylhydroxamate or 166 mg/kg 2H-pyrrolecarboxylic acid), 30 minutes before acetic acid, FIGS. 2-8): very little damage | lesions compared with the control group [2]: less severe and less active | state of the lesions (resolution, histology) [2]: apparently resolving and with some lamina proprial fibrosis and considerable hyper-plasia of submucosal lymphoid tissue | deaths ([3]; i.p., at doses up to 1 g/kg): no deaths | acute toxicity ([3]; preliminary): virtually non-toxic | iron binding [4]: binds iron remarkably well | activity as an iron chelator [5]: inactive

Sc1ncnc2nc[nH]c12 [6MP, 6-Mercaptopurine]
efficacy in Crohn's disease [6]: support the efficacy | dose-related leukopenia, patients affected [7]: 2-5%

Cn1cnc([N+](=O)[O-])c1Sc1ncnc2nc[nH]c12 [AZA, azathioprine]
efficacy in Crohn's disease [6]: support the efficacy | use in ulcerative colitis ([8]; several controlled trials): support the use | dose-related leukopenia, patients affected [7]: 2-5%

CC(=O)N(O)CCCCCNC(=O)CCC(=O)N(O)CCCCCNC(=O)CCC(=O)N(O)CCCCCN [DFO, reference compound]
effectiveness against acetic acid-induced colitis [1]: ineffective

C[C@]1(C(=O)O)CSC(c2ncccc2O)=N1 [DFT, reference compound]
effectiveness against acetic acid-induced colitis [1]: ineffective

Nc1ccc(O)c(C(=O)O)c1 [mesalamine, 5-aminosalicylic acid]
effectiveness for the treatment of acute UC [8]: effective to some degree in some patients

O=C(O)c1cc(/N=N/c2ccc(S(=O)(=O)Nc3ccccn3)cc2)ccc1O [sulfasalazine]
effectiveness for the treatment of acute UC [8]: effective to some degree in some patients
